From patent US20140288044A1, “COMPOSITIONS AND THERAPEUTIC USES OF IKK-RELATED KINASE EPSILON AND TANKBINDING KINASE 1 INHIBITORS” (Alzheimer's Institute of America, Inc., priority 2011, published 2014) come the findings set out here.

Read-outs that look alike come from different tables or passages of the source.

Assay [1] has as its system RANTES secretion by prostate cancer DU145 cells. Nature of the assay: ELISA to detect secreted RANTES, prostate cancer DU145 cells. It is filed as cell-based. The conditions noted are these: Homo sapiens, DU-145. As to the method:
Prostate cancer DU145 cells were seeded at 20,000 cells/well in a 96-well tissue culture plate. The following day media was removed and replaced with complete media containing IKKε/TBK1 inhibitor (starting concentration 25 μM, 1:3 dilutions, final DMSO 0.05%). Cells were incubated for 20 hours and culture supernatant used to determine secreted RANTES levels using a commercially available ELISA kit (R & D Systems, Minneapolis, Minn.).

In assay [2] the test system is IKKε-mediated phosphorylation of IRF3. Description: ELISA for in-situ phosphorylation of IRF3 (phospho-Ser396) in HEK293T cells cotransfected with IRF3 and IKKε. The conditions noted are these: Homo sapiens, HEK-293T. The format is cell-based. An outline of the steps:
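HEK293T cells cotransfected with IRF3 and IKKε were treated with compound for 20 h, and lysates were assayed by ELISA for phospho-Ser396 IRF3, normalized to DMSO. Viability was checked in parallel by CellTiter-Glo. For TBK1, cells cotransfected with IRF7 and TBK1 were treated overnight and probed by Western blot for phospho-Ser477/Ser479 IRF7.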

The target of the next assay is T1, IKKε (Homo sapiens, UniProt Q14164).
T1 construct: His-tag (in-house Sf9 preparation) or GST-tag (purchased Invitrogen preparation); these are alternatives, not both on one protein; host or cells: Sf9 cells
T1 sequence (Q14164 1-716): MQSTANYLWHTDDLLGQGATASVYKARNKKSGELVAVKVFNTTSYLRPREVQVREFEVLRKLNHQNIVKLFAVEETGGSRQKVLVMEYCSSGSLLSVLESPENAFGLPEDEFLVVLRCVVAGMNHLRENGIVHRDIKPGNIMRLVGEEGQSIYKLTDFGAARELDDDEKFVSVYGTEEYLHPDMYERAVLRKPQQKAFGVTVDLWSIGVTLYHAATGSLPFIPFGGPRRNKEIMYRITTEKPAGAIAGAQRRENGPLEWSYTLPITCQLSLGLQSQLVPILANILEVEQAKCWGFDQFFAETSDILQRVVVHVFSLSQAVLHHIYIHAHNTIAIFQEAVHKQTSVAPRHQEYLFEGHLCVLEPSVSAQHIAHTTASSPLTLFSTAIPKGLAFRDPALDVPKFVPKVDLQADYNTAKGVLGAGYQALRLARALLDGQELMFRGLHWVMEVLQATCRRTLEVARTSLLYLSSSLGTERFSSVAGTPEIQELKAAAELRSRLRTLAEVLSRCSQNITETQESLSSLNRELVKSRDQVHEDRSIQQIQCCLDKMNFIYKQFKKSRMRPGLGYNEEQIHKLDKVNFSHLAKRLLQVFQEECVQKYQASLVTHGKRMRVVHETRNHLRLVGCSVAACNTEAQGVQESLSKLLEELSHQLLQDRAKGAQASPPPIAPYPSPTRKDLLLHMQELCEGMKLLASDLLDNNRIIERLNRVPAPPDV
Nature of the assay: In-vitro IKKε kinase assay (radiolabelled ATP, filterplate). It is filed as biochemical. An outline of the steps: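 His-tagged IKKε from Sf9 cells or GST-tagged IKKε, with myelin basic protein, casein or dephosphorylated casein as substrate and 32 μM ATP (2× Km) plus [γ^33]ATP. "Normal" assay used 0.1 μg/ml enzyme; "sensitized" used 0.015 μg/ml with dephosphorylated casein only. Stopped after 30–45 min with phosphoric acid; P-81 filter counts normalized to DMSO after background subtraction.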

The mark [3] stands for this setting: DU145 cells, 20 hours, read-out: IC50, inhibition of the secretion of RANTES.
Setting [4] is: 20 h, HEK293T cells, 20 hours, read-out: IC50, in-situ IKKε-mediated phosphorylation of IRF3.
Where [5] appears, read: Table 3, DU145 cells in culture, read-out: RANTES Secretion IC50.
The mark [6] stands for this setting: Table 3, in vitro, read-out: IKKε IC50.
Setting [7] is: 20 h, HEK293T cells, 20 hours, range given from about 1 μM to about 250 nM, read-out: IC50, in-situ IKKε-mediated phosphorylation of IRF3.
Setting [8] is: Table 3, HEK293T cells in culture, read-out: pIRF3 ELISA IC50.
The mark [9] stands for this setting: "sensitized" assay, read-out: IC50, inhibition of the kinase activity of IKKε.
Setting [10] is: in-vitro IKKε kinase inhibition assays, given as 0.005 μM (5 nM), read-out: IKKε kinase inhibitory activity (IC50 value).

As to `COCCOC1CN(C(=O)c2ccc(Nc3nccc(-c4ccc(OC5CCOCC5)c(C#N)c4)n3)cn2)C1` [Example Compound 28, 5-{2-[(6-{[3-(2-Methoxyethoxy)azetidin-1-yl]carbonyl}pyridin-3-yl)amino]pyrimidin-4-yl}-2-(tetrahydro-2H-pyran-4-yloxy)benzonitrile], the values for the IC50 in assay [1] (setting [3]) and in assay [2] (setting [4]) were 60 to 125 nM and 1000 to 5000 nM, respectively.

With `N#Cc1cc(-c2ccnc(Nc3ccc(CN4CCC4)nc3)n2)ccc1OC1CCOCC1` [Example Compound 47, 5-(2-{[6-(Azetidin-1-ylmethyl)pyridin-3-yl]amino}pyrimidin-4-yl)-2-(tetrahydro-2H-pyran-4-yloxy)benzonitrile], the IC50 in assay [1] (setting [3]) was 20 to 60 nM; in assay [1] (setting [5]), 39.5 nM; at IKKε (setting [6]), 6.37 nM; in assay [2] (setting [7]) it was 250 to 1000 nM; in assay [2] (setting [8]), 265 nM.

`COC1CN(Cc2ccc(Nc3nccc(-c4ccc(OC5CCOCC5)c(C#N)c4)n3)cn2)C1` [Example Compound 48, 5-[2-({6-[(3-Methoxyazetidin-1-yl)methyl]pyridin-3-yl}amino)pyrimidin-4-yl]-2-(tetrahydro-2H-pyran-4-yloxy)benzonitrile]: the IC50 in assay [1] (setting [3]) was 20 to 60 nM; in assay [1] (setting [5]), 52.2 nM; at IKKε (setting [9]), less than 5 nM; at IKKε (setting [6]) it was 2.74 nM; at IKKε (setting [10]), less than 5 nM; in assay [2] (setting [7]) it was 250 to 1000 nM. For the same molecule, in assay [2] (setting [8]), the IC50 is 315 nM.

For the molecule `COCCOC1CN(Cc2ccc(Nc3nccc(-c4ccc(OC5CCOCC5)c(C#N)c4)n3)cn2)C1` [Example Compound 49, 5-{2-[(6-{[3-(2-Methoxyethoxy)azetidin-1-yl]methyl}pyridin-3-yl)amino]pyrimidin-4-yl}-2-(tetrahydro-2H-pyran-4-yloxy)benzonitrile], the IC50 is 20 to 60 nM in assay [1] (setting [3]); 55.8 nM in assay [1] (setting [5]); 6.11 nM on IKKε (setting [6]); 250 to 1000 nM in assay [2] (setting [7]); 363 nM in assay [2] (setting [8]).

For `N#Cc1cc(-c2ccnc(Nc3ccc(N4CCOCC4)nc3)n2)ccc1NC(=O)C1CC1` [Example Compound 141, N-[2-Cyano-4-(2-{[6-(morpholin-4-yl)pyridin-3-yl]amino}pyrimidin-4-yl)phenyl]cyclopropanecarboxamide], the IC50 in assay [1] (setting [3]) was 20 to 60 nM; in assay [1] (setting [5]), 21 nM; on IKKε (setting [9]), less than 5 nM; on IKKε (setting [6]) it was 1.91 nM; at IKKε (setting [10]), less than 5 nM; in assay [2] (setting [4]), less than 100 nM. In addition, the IC50 in assay [2] (setting [8]) worked out at 32.6 nM.
